The values that follow are results of earlier work, collected in patent publication EP0956866A1, “DRUGS FOR AMELIORATING OPHTHALMIC CIRCULATORY DISTURBANCE” (KIRIN BEER KABUSHIKI KAISHA, priority 1996, dated 1998).

The conditions of data set [1]: literature report.
The conditions of data set [2]: disclosed in WO89/10757.

Regarding `CC1(C)Oc2ccc(C#N)cc2C(N2CCCC2=O)C1O` (stereo not drawn) [cromakalim], in data set [1], the ocular blood flow entry is given as “lowers the ocular blood flow”. Moreover, the ocular pressure entry in data set [2] is “lower the ocular pressure”.
On to `CC(N/C(=N\C#N)Nc1ccncc1)C(C)(C)C` (stereo not drawn) [pinacidil], for which the ocular pressure entry in data set [2] was “lower the ocular pressure”.
